Like-named read-outs stand apart in the source and are kept apart here.
Tests used:
Assay type in all cases: cell-based
[1] = test system: SKBR3 cells express WT PI3Ka; experiment: In vitro cell proliferation, SKBR3 cells (CellTiter-Glo); conditions: inhibition of proliferation
Outline: (§1)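 T47D cells in RPMI/10% FBS/insulin (0.2 units/mL) or SKBR3 in McCoys 5a/10% FBS, 1,500 cells/well, grown 72 h at 37 °C with 10-point compound dilutions. CellTiter-Glo luminescence; % inhibition normalised to 0.1% DMSO and 10 uM Alpelisib, EC50 from four-parameter curve fit.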

[2] = test system: T47D cells expressing mutant PI3Ka (H1047R); experiment: In vitro cell proliferation, T47D cells (CellTiter-Glo); conditions: inhibition of proliferation, read-out: Avg T-47D EC50
Outline: as §1

[3] = test system: phosphorylation of AKT (pAKT) in SKBR3 cells express WT PI3Ka; experiment: In vitro cell pAKT (Ser473) HTRF, SKBR3 cells
Outline: (§2)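 pAKT (Ser473) was quantified by HTRF in lysates from cells exposed 6 h at 37 °C to 10-point compound series, with T47D in insulin-supplemented RPMI/10% FBS and SKBR3 in McCoy's 5a/10% FBS. Controls: 0.1% DMSO (high) and 10 uM alpelisib (low). IC50 from sigmoidal curve fitting.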

[4] = test system: phosphorylation of AKT (pAKT) in T47D cells expressing mutant PI3Ka (H1047R); experiment: In vitro cell pAKT (Ser473) HTRF, T47D cells
Outline: as §2

[5] = cellular pAKT, T47D cells, mutant PI3Ka (H1047R), 6 hours, read-out: Avg T-47D IC50
[6] = Homo sapiens, SK-BR-3, 6 h, cellular pAKT
[7] = Homo sapiens, T47D, 6 h, cellular pAKT, T47D cells, mutant PI3Ka (H1047R), 6 hours, read-out: Avg T-47D IC50

EC50 ([1]; 72 hours) [µM] | EC50 ([2]; 72 hours) [µM] | IC50 ([3]; cellular pAKT, 6 hours) [µM] | IC50 [4, 5] [µM] | EC50 ([1]; Homo sapiens, SK-BR-3, 72 h) [µM] | EC50 ([2]; Homo sapiens, T47D, 72 h) [µM] | IC50 [3, 6] [µM] | IC50 [4, 7] [µM] | Structure (SMILES) | IC50 ([3]; Homo sapiens, SK-BR-3, cellular pAKT, 6 hours) [µM] | IC50 ([4]; Homo sapiens, T47D, 6 h, read-out: Avg T-47D IC50, cellular pAKT, T47D cells, mutant PI3Ka (H1047R), 6 hours) [µM]
 |  |  |  | > 15 | 2 to 15 | > 15 | 0.5 to 2 | Cc1ccc(-c2cc3c(C(C)Nc4ccccc4C(=O)O)cc(C)cc3c(=O)n2C)nc1 (stereo not shown) [Example 74] |  | 
 |  |  |  | > 15 | > 15 | > 15 | > 15 | Cc1cc(C(C)Nc2ccccc2C(=O)O)c2cc(N3C[C@H]4CCCC[C@@H]4C3)n(C)c(=O)c2c1 (single isomer, unassigned) [Example 101] |  | 
 |  |  |  | 2 to 15 | 0.001 to 0.5 | 2 to 15 | 0.001 to 0.5 | Cc1cc([C@@H](C)Nc2ccccc2C(=O)O)c2cc(N3CCN(c4ncccc4C#N)CC3)n(C)c(=O)c2c1 [Example 199] |  | 
2 to 15 | 0.001 to 0.5 | 2 to 15 | 0.001 to 0.5 |  |  |  |  | Cc1cc([C@@H](C)Nc2ccccc2C(=O)O)c2cc(N3CCC(C)(C#N)CC3)n(C)c(=O)c2c1 [Example 164] |  | 
 |  |  |  | > 15 | 0.5 to 2 | > 15 | 0.5 to 2 | Cc1cc([C@@H](C)Nc2ccccc2C(=O)O)c2cc(-c3cnn(C4CC4)c3)n(C)c(=O)c2c1 [Example 212] |  | 
> 15 | 0.001 to 0.5 | > 15 | 0.001 to 0.5 |  |  |  |  | Cc1cc([C@@H](C)Nc2ccccc2C(=O)O)c2cc(C3C[C@H]3C3CC3)n(C)c(=O)c2c1 (single isomer, unassigned) [Example 315] |  | 
2 to 15 | 0.001 to 0.5 | > 15 | 0.5 to 2 |  |  |  |  | COCCC(=O)N1CCN(c2cc3c(C(C)Nc4ccccc4C(=O)O)cc(C)cc3c(=O)n2C)CC1 (single isomer, unassigned) [Example 113] |  | 
 |  |  |  | > 15 | 0.5 to 2 | > 15 | 0.5 to 2 | Cc1cc([C@@H](C)Nc2ccccc2C(=O)O)c2cc(N3CCn4ncnc4C3)n(C)c(=O)c2c1 [Example 419] |  | 
2 to 15 | 0.001 to 0.5 | 2 to 15 | 0.001 to 0.5 |  |  |  |  | COc1ncccc1N1CCN(c2cc3c([C@@H](C)Nc4ccccc4C(=O)O)cc(C)cc3c(=O)n2C)CC1 [Example 256] |  | 
 |  |  |  | 2 to 15 | 0.001 to 0.5 | 2 to 15 | 0.001 to 0.5 | CNc1ccc(N2CCN(c3cc4c([C@@H](C)Nc5ccccc5C(=O)O)cc(C)cc4c(=O)n3C)CC2)cn1 [Example 233] |  | 
> 15 | 0.5 to 2 | > 15 | 2 to 15 |  |  |  |  | Cc1cc(C(C)Nc2ccccc2C(=O)O)c2cc(N3CCN4C(=O)CCC4C3)n(C)c(=O)c2c1 (single isomer, unassigned) [Example 124] |  | 
> 15 | 2 to 15 | > 15 | 2 to 15 |  |  |  |  | Cc1cc(C(C)Nc2ccccc2C(=O)O)c2cc(N3CCC4(CCN(CC(F)(F)F)C4)CC3)n(C)c(=O)c2c1 (single isomer, unassigned) [Example 97] |  | 
 |  |  |  | > 15 | 0.001 to 0.5 | > 15 | 0.001 to 0.5 | COC1CN(c2cc3c([C@@H](C)Nc4ccccc4C(=O)O)cc(C)cc3c(=O)n2C)C1 [Example 180] |  | 
 | 2 to 15 |  | > 15 | > 15 |  | > 15 |  | Cc1cc(C(C)Nc2ccccc2C(=O)O)c2cc(-c3ccc(C)nc3)n(C)c(=O)c2c1 (single isomer, unassigned) [Example 20, 2-((1-(2,7-dimethyl-3-(6-methylpyridin-3-yl)-1-oxo-1,2-dihydroisoquinolin-5-yl)ethyl)amino)benzoic acid] |  | 
 |  |  |  | 2 to 15 | 0.001 to 0.5 | 2 to 15 | 0.001 to 0.5 | Cc1cc(C(C)Nc2ccccc2C(=O)O)c2cc(N3CCN(c4ccc(C)nc4)CC3)n(C)c(=O)c2c1 (single isomer, unassigned) [Example 145] |  | 
> 15 | 0.5 to 2 | > 15 | 0.001 to 0.5 |  |  |  |  | Cc1cc(C(C)Nc2ccccc2C(=O)O)c2cc(N3Cc4cccc(C(F)(F)F)c4C3)n(C)c(=O)c2c1 (stereo not shown) [Example 67] |  | 

More lines, now with the values behind:

Structure (SMILES) | EC50 ([1]; 72 hours) [µM] | EC50 ([2]; 72 hours) [µM] | IC50 ([3]; cellular pAKT, 6 hours) [µM] | IC50 [4, 5] [µM] | EC50 ([1]; Homo sapiens, SK-BR-3, 72 h) [µM] | EC50 ([2]; Homo sapiens, T47D, 72 h) [µM] | IC50 [3, 6] [µM] | IC50 [4, 7] [µM] | IC50 ([3]; Homo sapiens, SK-BR-3, cellular pAKT, 6 hours) [µM] | IC50 ([4]; Homo sapiens, T47D, 6 h, read-out: Avg T-47D IC50, cellular pAKT, T47D cells, mutant PI3Ka (H1047R), 6 hours) [µM]
CC(Nc1cccc(F)c1C(=O)O)c1cc(F)cc2c(=O)n(C)c(-c3cnc(OC4CC(F)C4)c(F)c3)cc12 (stereo not shown) [Example 388] | > 15 | 0.001 to 0.5 | > 15 | 0.001 to 0.5 |  |  |  |  |  | 
Cc1cc(C(C)Nc2ccccc2C(=O)O)c2cc(C#Cc3ccccc3)n(C)c(=O)c2c1 (single isomer, unassigned) [Example 36, 2-((1-(2,7-dimethyl-1-oxo-3-(phenylethynyl)-1,2-dihydroisoquinolin-5-yl)ethyl)amino)benzoic acid] | > 15 | 0.001 to 0.5 | > 15 | 0.001 to 0.5 |  |  |  |  |  | 
C[C@@H](Nc1ccccc1C(=O)O)c1cc(F)cc2c(=O)n(C)c(-c3cnc(-c4ccnc(C(F)(F)F)n4)c(F)c3)cc12 [Example 575] |  |  |  |  | > 15 | 2 to 15 | > 15 | 0.5 to 2 |  | 
Cc1cc([C@@H](C)Nc2ccccc2C(=O)O)c2cc(-c3ccc(C(F)(F)F)cn3)n(C)c(=O)c2c1 [Example 396] |  |  |  |  | > 15 | 0.001 to 0.5 | > 15 | 0.001 to 0.5 |  | 
Cc1cc([C@@H](C)Nc2ccccc2C(=O)O)c2cc(-c3cnc(OC4CC4)cn3)n(C)c(=O)c2c1 [Example 394] | > 15 | 0.001 to 0.5 | > 15 | 0.001 to 0.5 |  |  |  |  |  | 
Cc1ncc(-c2ncc(-c3cc4c(C(C)Nc5ccccc5C(=O)O)cc(F)cc4c(=O)n3C)cc2F)cc1F (stereo not shown) [Example 459] | 2 to 15 | 0.001 to 0.5 | 2 to 15 | 0.001 to 0.5 |  |  |  |  |  | 
C[C@@H](Nc1cccc(F)c1C(=O)O)c1cc(F)cc2c(=O)n(C)c(N3C4CCC3CN(CC(F)(F)F)C4)cc12 [Example 398] |  |  |  |  | > 15 | 0.001 to 0.5 | 2 to 15 | 0.001 to 0.5 |  | 
Cc1cc([C@@H](C)Nc2ccc(F)cc2C(=O)O)c2c(F)c(N3CCN(CC(F)(F)F)CC3)n(C)c(=O)c2c1 [Example 41, (R)-5-fluoro-2-((1-(4-fluoro-2,7-dimethyl-1-oxo-3-(4-(2,2,2-trifluoroethyl)piperazin-1-yl)-1,2-dihydroisoquinolin-5-yl)ethyl)amino)benzoic acid] |  |  |  |  | 2 to 15 | 0.001 to 0.5 | > 15 | 0.001 to 0.5 |  | 
C[C@@H](Nc1ccccc1C(=O)O)c1cc(F)cc2c(=O)n(C)c(-c3cnc(OCC(F)(F)F)s3)cc12 [Example 568] |  |  |  |  | > 15 | 0.001 to 0.5 | > 15 | 0.001 to 0.5 |  | 
Cc1ncc(F)cc1-c1ncc(-c2c(F)c3c([C@@H](C)Nc4ccccc4C(=O)O)cc(F)cc3c(=O)n2C)cc1F [Example 562] |  |  |  |  | > 15 | 0.001 to 0.5 | 2 to 15 | 0.001 to 0.5 |  | 
Cc1cc([C@@H](C)Nc2ccccc2C(=O)O)c2cc(-c3cnc4occc4c3)n(C)c(=O)c2c1 [Example 270] |  |  |  |  | > 15 | 0.5 to 2 | > 15 | 0.001 to 0.5 |  | 
Cc1cc(C(C)Nc2ccccc2C(=O)O)c2cc(-c3cc4cc(F)ccc4[nH]3)n(C)c(=O)c2c1 (stereo not shown) [Example 7, 2-((1-(3-(5-fluoro-1H-indol-2-yl)-2,7-dimethyl-1-oxo-1,2-dihydroisoquinolin-5-yl)ethyl)amino)benzoic acid] |  |  |  |  | > 15 | 2 to 15 | > 15 | 0.5 to 2 |  | 
Cc1cc([C@@H](C)Nc2ccc(Cl)nc2C(=O)O)c2cc(N3CCN(c4ccc(F)cc4)CC3)n(C)c(=O)c2c1 [Example 24, (R)-6-chloro-3-((1-(3-(4-(4-fluorophenyl)piperazin-1-yl)-2,7-dimethyl-1-oxo-1,2-dihydroisoquinolin-5-yl)ethyl)amino)picolinic acid] |  |  |  |  | 2 to 15 | 0.001 to 0.5 |  |  | 2 to 15 | 0.001 to 0.5
Cc1cc([C@@H](C)Nc2ccccc2C(=O)O)c2cc(-c3ccc(C(C)(C)F)nc3)n(C)c(=O)c2c1 [Example 225] |  |  |  |  | > 15 | 0.001 to 0.5 | > 15 | 0.001 to 0.5 |  | 
Cc1ncncc1N1CCN(c2cc3c([C@@H](C)Nc4cccc(F)c4C(=O)O)cc(F)cc3c(=O)n2C)CC1 [Example 397] | > 15 | 0.001 to 0.5 | > 15 | 0.5 to 2 |  |  |  |  |  | 
COC(C)(C)c1ncc(-c2cc3c([C@@H](C)Nc4ccccc4C(=O)O)cc(C)cc3c(=O)n2C)cc1F [Example 277] | 2 to 15 | 0.001 to 0.5 | 2 to 15 | 0.001 to 0.5 |  |  |  |  |  | 
C[C@@H](Nc1ccccc1C(=O)O)c1cc(F)cc2c(=O)n(C)c(C3C[C@@H]3CF)cc12 (single isomer, unassigned) [Example 494] | > 15 | 0.001 to 0.5 | > 15 | 0.001 to 0.5 |  |  |  |  |  | 
Cc1cc(C(C)Nc2ccccc2C(=O)O)c2cc(C#Cc3cccc(Cl)c3)n(C)c(=O)c2c1 (single isomer, unassigned) [Example 143] |  |  |  | > 15 | > 15 | > 15 | > 15 |  |  | 
